Results taken from patent US20050069883A1 (priority 2001, published 2005).
Bridge positions count the residues as written; N and C are the ends. Ends that are not written are not given here.

Key:
[1] = system: MCH-1R(Δ316/EGFP); assay: Functional activation, aequorin assay (mobilization of intracellular calcium); type: cell-based, human; details: FIG. 6; transiently transfected HEK293-AEQ17 cells, aequorin bioluminescence
Protocol: Functional activation of MCH-1R […] was measured in an aequorin assay. Proteins were introduced in the stable reporter cell line HEK293-AEQ17 in which mobilization of intracellular calcium can be detected by bioluminescence of jelly fish aequorin upon calcium binding.
Bioluminescence was detected using a Luminoskan RT luminometer (Labsystems Inc., Gaithersburg, Md.). HEK293-AEQ17 cells were maintained in D-MEM/high glucose medium (Life Technologies, Rockville, Md.) supplemented with 10% fetal bovine serum, […] G418, 25 mM Hepes at 37° C. with 5% CO2 in a humidified atmosphere. […]
The cells were harvested, washed once in ECB medium and resuspended to 500,000 cells/ml. […] of cell suspension (corresponding to 5×10^4 cells) was then injected into a 96-well test plate, and the integrated light emission was recorded over 30 seconds, in 0.5 second units. 20 μL of lysis buffer (0.1% final Triton X-100 concentration) was then injected and the integrated light emission recorded over 10 seconds, in 0.5 second units. The “fractional response” values for each well were calculated by taking the ratio of the integrated response to the initial challenge to the total integrated luminescence including the Triton X-100 lysis response.

[2] = target: human melanin-concentrating hormone receptor (MCH-1R) (human) (UniProt Q99705); assay: scintillation proximity assay, HEK293-AEQ17/MCH-1R membranes; non-specific binding defined with 500 nM unlabeled MCH
Chain of human melanin-concentrating hormone receptor (MCH-1R) (human) (Q99705 whole entry): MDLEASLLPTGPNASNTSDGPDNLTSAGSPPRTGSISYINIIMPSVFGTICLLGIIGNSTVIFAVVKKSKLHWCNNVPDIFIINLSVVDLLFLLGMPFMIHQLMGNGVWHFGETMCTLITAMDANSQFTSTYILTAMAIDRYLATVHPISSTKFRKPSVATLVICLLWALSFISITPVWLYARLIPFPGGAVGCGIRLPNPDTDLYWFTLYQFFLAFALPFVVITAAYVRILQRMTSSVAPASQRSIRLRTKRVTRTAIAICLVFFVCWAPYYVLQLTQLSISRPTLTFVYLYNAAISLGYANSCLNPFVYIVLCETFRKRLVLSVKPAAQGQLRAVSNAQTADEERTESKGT

Row | specific binding window [2] | Substance | functional activation of MCH-1R(Δ316/EGFP) (mobilization of intracellular calcium) [1]
1 |  | Melanin-concentrating hormone (DFDMLRCMLGRVYRPCWQV; disulfide 7-16 (inferred); ends not checked) [MCH, cyclic 19-amino acid neuropeptide, MCH-1R agonist] | lack of functional activation
2 | > 6 x (fold) | [125I]Phe13Tyr19-MCH (from UniProt P20382 147-165) (peptide) | 
